From a melting point compilation (Tetko et al.; mined from patent text by program, amines drawn as free bases though some values may be those of a salt)

| Compound | melting point [°C] |
| --- | --- |
| CCOC(=O)c1ccc(OCCC2CN(c3ccc(SC)nn3)CCO2)cc1 (stereo unspecified) | 111 |
| CC(=O)NCCSCC(=O)[C@H](Cc1ccccc1)NC(=O)[C@H](CC(C)C)NC(=O)OCc1ccccc1 | 122 to 123 |
| Clc1nccc2cc(Br)ccc12 | 103 to 104 |
| CS(=O)(=O)n1c2cc(O)c(O)cc2c2cc(O)c(O)cc21 | 278 to 280 |
| CCCC(COc1noc2ccc(Cl)cc12)NC=O (stereo unspecified) | 107 to 108 |
| C#Cc1ccc2c(c1)[C@@H](N)[C@H](O)CO2 (relative stereo) | 132 to 134 |
| CCOC(=O)c1c(C)nc(S)c(N)c1NCCCN(C)C | 110 to 112 |
| Clc1ccc2c(c1)N=C(N1CCN[C@@H](Cc3ccccc3)C1)c1ccccc1N2 | 79 to 92 |
| Cc1cccc(C2c3cc(NC(=O)CC(C)(C)C)c(C)c(C)c3OC2(C)C)c1 (stereo unspecified) | 156 to 157 |
| COc1cc2c(cc1O)CCN(C(=O)c1cccc(C#N)c1)C2=O | 197 to 198 |
| CC(=Cc1c(-c2ccccc2)nc2sc(C)nn12)C(=O)O | 298 to 300 |
| CCOC(=O)c1nc2ccccc2n(CCO)c1=O | 137 to 138 |
| O=c1n(-c2ccc(C(F)(F)F)cc2)c(=O)n2n1CC(c1ccccc1)C2c1ccc(Cl)cc1 (stereo unspecified) | 148 to 150 |
| O=C(O)c1cccc(Oc2ccc(C(=O)c3ccc(F)cc3)cc2)c1 | 158 to 160 |
| COc1ccc2c(c1O)C(=O)CC(c1ccc(F)cc1)=N2 | 60 to 62 |
| O=Cc1ccc2c(c1)c1cc(C=O)ccc1n2Cc1ccccc1 | 222 to 224 |
| CC(C)(C)Oc1ccc(S(=O)(=O)N2c3ccccc3C[C@H]2C(=O)NCCOc2ccc(CC(=O)O)cc2)cc1 | 68 to 71 |
| O=C(Oc1ccccc1Cl)c1ncn2c1[C@@H]1CCCN1C(=O)c1c(Cl)cccc1-2 | 214 to 215 |
| NNc1ccc(Cl)c(Cl)c1Cl | 138 to 140 |
| Nc1cccc(-c2ccc(OCC3CNC3)c3ccccc23)n1 | 88 to 110 |

| Compound | melting point [°C] |
| --- | --- |
| Cc1cc(=O)[nH]c2c3c(cc(O)c12)OC(C)C(C)C3=O (stereo unspecified) | 300 |
| CSc1ccc(COc2cc(S(=O)(=O)C(C)C)cc(C#N)c2N)nc1 | 156 to 157 |
| Cc1c[nH]c(-c2ccc(OCC(O)CNC(C)(C)C)cc2)n1 (stereo unspecified) | 202 to 203 |
| COc1ccc(-c2nc(C)c(C)nc2-c2ccc(OC)cc2)cc1 | 106 to 108 |
| CC(Cl)(Cl)C(NC(=O)c1cccc(Cl)c1)NC(=NC#N)Nc1ccc(C(F)(F)F)nc1 (stereo unspecified) | 191 to 192 |
| COCOc1cc2c(cc1C=O)C(C)(C)CCC2(C)C | 84 to 85 |
| COc1cc2c(cc1OC)C(c1ccccc1)N(C(=O)NCCN(C)C)CC2 (stereo unspecified) | 60 |
| CCOC(=O)C(C)c1ccc(-c2cn3ccccc3n2)cc1 (stereo unspecified) | 110 to 112 |
| CCOc1ccc(-c2nc(Cn3cccc3C(C)=O)cs2)cc1OCC | 123 to 124 |
| O=C1CCCN1CCCn1c(=O)[nH]c2ncc(-c3ccc(O)cc3)nc21 | 305 to 306 |
| O=C(Cl)c1cccnc1Oc1cccc(Cl)c1 | 72 to 74 |
| CC[C@H]1CN(c2c(F)cc3c(=O)c(C(=O)O)cn(C4CC4)c3c2C)C[C@H]1N | 148 to 150 |
| Cc1ccccc1OC(C)C(=O)OC1CC(O)C=C2C=CC(C)C(CCC3CC(O)CC(=O)O3)C21 (mixture of isomers) | 85 to 87 |
| CC(C)c1c(C(=O)Cl)n(-c2ccc(F)cc2)c(=O)c2ccccc12 | 113 to 115 |
| Cn1cc(C2=C(c3c4n(c5ccccc35)CC(CN)CC4)C(=O)NC2=O)c2ccccc21 (stereo unspecified) | 160 to 165 |
| O=C1NCCN1c1ccc(S(=O)(=O)Nc2ccccc2)cc1 | 262 to 264 |
| COc1ccc(C(C)(CC(C)C)C(=O)NC2CCCCCCCCCCNC2=O)c(S)c1 (stereo unspecified) | 131 to 136 |
| O=C(CNC(=O)OCc1ccccc1)ON1C(=O)CCC1=O | 110 to 112 |
| COC(=O)C1=C(CC(=O)N2CCN(C)CC2)NC(CS(=O)c2ccccc2Cl)=C(C(=O)OC)C1c1c(Cl)cccc1Cl (stereo unspecified) | 180 to 181 |
| COCCOc1ccc(Nc2cc(Nc3ccc(F)c(Cl)c3)ncn2)cc1 | 208 to 210 |

| Compound | melting point [°C] |
| --- | --- |
| CCCc1c(O)ccc2c1CCCC2=O | 159 to 160 |
| Cn1ccc(=O)c(OCc2ccccc2)c1C(=O)c1cccnc1 | 210 to 216 |
| COc1cc(COc2nn(-c3ccccc3)cc2/C=C/c2nc(N3CCCCC3)sc2C)ccc1OCc1nc(-c2ccc(CC(=O)O)cc2)oc1C | 146 to 148 |
| Cc1ccc2c(=O)nc(-c3cc(S(C)(=O)=O)cc(CCC(=O)OC(C)(C)C)n3)sc2c1 | 178 |
| Nc1cccc2[nH]c3c(c12)CCN(Cc1ccccc1)CC3 | 164 to 165 |
| CN(C)C=C1CN=C(c2ccccc2)c2cc(Cl)ccc2C1=O | 179 to 180 |
| COc1ccc(C(=O)c2cn(C)c3ccc([N+](=O)[O-])cc23)cc1 | 229 |
| Nc1nc2ccccc2c2c1ncn2CCO | 260 to 262 |
| CC(=O)Oc1cc(C(C)C)ccc1C1(OC(C)=O)C(=O)c2cccc([N+](=O)[O-])c2C1=O (stereo unspecified) | 94 to 98 |
| Cc1ccc(/C=C/c2nc(COc3ccc(CCCCn4ccnc4CCO)cc3)co2)cc1 | 108 to 109 |
| O=[N+]([O-])c1ccc(N2C[C@@H]3C[C@H]2CS3)cc1F | 97 to 98 |
| O=C(Cc1ccccc1)C(C[N+](=O)[O-])c1ccccc1 (stereo unspecified) | 99 to 100 |
| CC(C)CC1(C)C(=O)NCCN1Cc1ccccc1 (stereo unspecified) | 158 to 161 |
| COC(=O)N(c1cc(C)ccc1C(=O)c1ccc(F)cc1)C(C)C | 92 to 94 |
| CC(C)c1c(NC(=O)OCc2ccccc2)nc(-c2ccc(F)cc2)n1CCC1CC(O)CC(=O)O1 (stereo unspecified) | 86 to 90 |
| CS(=O)(=O)NC1CC(N)(C(=O)O)C2C(C(=O)O)C12 (stereo unspecified) | > 275 |
| CCC1(CC)NC(=O)C(CC)(CC)N1 | 68 to 70 |
| COc1cc(O)ccc1/C=C/C(=O)CC(=O)CCc1ccc(O)cc1 | 131 to 135 |
| N[C@H]1CCN(c2ccc3c(C(=O)NCC4CCCCC4)cccc3n2)C1 | 127 to 128 |

Second part, the compound after the results:

| melting point [°C] | Compound |
| --- | --- |
| 50 to 51 | CCOC(=O)C(Cc1cc(OC)c(OC)cc1OC)C(=O)OCC |
| 75 to 78 | OC(CCCl)COc1ccc(Br)cc1 (stereo unspecified) |
| 209 to 211 | O=C(Nc1cc(OC2CCCC2)c(Cl)cc1F)C1=C(C(=O)NC2CCCCC2)CCCC1 |
| 60 to 61 | CCOC(=O)CC(C)N=c1sc2ccc(Cl)cc2s1 (stereo unspecified) |
| 55 to 57 | COC(=O)C(C)Oc1ccc(Oc2ccc(Cl)cc2F)cc1 (stereo unspecified) |
| 218 | O=C(O)c1c(O)ccc2ccccc12 |
| 222 to 224 | O=C(Nc1ccc(-n2nc(C(F)(F)F)cc2C(F)(F)F)cc1)c1ccc2c(c1)OCO2 |
| 148 to 149 | N#Cc1cc(Cc2ccccc2)cc(-c2cccc([N+](=O)[O-])c2)c1O |
| 157 to 158 | COc1cc2c(cc1O)CCC(=O)N2Cc1cc(OC)c(OC)c(OC)c1 |
| 120 to 122 | CC1(C(=O)Nc2ccc(OCc3ccccc3)c(C(F)(F)F)c2)CC1 |
| 147 to 149 | COc1ccc2[nH]cc(C=C3OC(=O)N(Cc4cc(C(F)(F)F)cc(C(F)(F)F)c4)C3=O)c2c1 |
| 142 to 143 | CCCN(Cc1ccc(NCCN(CC)CC)c2c(=O)c3ccccc3sc12)S(C)(=O)=O |
| 78 to 80 | O[C@H](CCl)COc1ccc(OCc2ccccc2)cc1 |
| 170 to 172 | COC1c2ccccc2C2C(=O)N(Cc3ccccc3)C(=O)C12 (stereo unspecified) |
| 48 to 49.5 | CCCCCCCCOC(=O)C=Cc1ccc(N(C)C)cc1 |
| 238 to 239 | COc1ccc(C(=O)O)cc1C12CC3CC(CC(C3)C1)C2 |
| 114 to 116 | O=C(CC1=NCCN1)N1CCOc2ccc(S(=O)(=O)c3ccccc3)cc21 |
| 160 to 164 | O=C(Nc1cccc(OCCCN2CCOCC2)c1)C12CC3CC(CC(C3)C1)C2 |
| 121 to 122 | CNC(=O)NN(CC(=O)OC)c1cccc(Cl)c1 |
| 110 to 112 | CON=C(C(N)=NO)c1ccccc1COc1ccccc1C |
| 281 to 283 | O=c1[nH]ncc2[nH]c(-c3ccc(OC(F)F)c(OC4CC4)c3)c(Cl)c12 |

| melting point [°C] | Compound |
| --- | --- |
| 115 | CCC(=O)Nc1cccc(NC(=O)CC(C)(OC)OC)c1 |
| 93 to 96 | CCOC(=O)c1cnc2c(cnn2Cc2ccco2)c1OCC |
| 149 to 151 | CCc1nc2c(C)cc(C)nc2n1Cc1ccc(C(=C(Br)c2nnn[nH]2)c2ccccc2)cc1 |
| 32 | CCCCCCCCCCCCCCCCOCC(CF)COC(c1ccccc1)(c1ccccc1)c1ccccc1 (stereo unspecified) |
| 232 to 234 | COc1cc(OC)n2nc(S(=O)(=O)Nc3c(Cl)cccc3Cl)nc2n1 |
| 182 to 183 | Cc1sc(C(N)=O)c2c1-c1nn(Cc3ccccc3)cc1CC2 |
| 90 to 91 | N#Cc1ccc(-c2n[nH]cc2C(F)(F)F)cc1SCC(F)(F)F |
| 128 to 129 | COc1cc(C=O)ccc1OCc1nc(-c2ccccc2)cn1C |
| 125 to 126 | Nc1ccc(Br)n2nc(SCc3ccccc3)nc12 |
| 70 to 71 | COc1ccc(-c2coc3cc(OCC(O)CNC4CCCCC4)ccc3c2=O)cc1OC (stereo unspecified) |
| 99.7 to 100 | Cc1cc(C(=O)N2C(C)CCCC2C)ccc1[N+](=O)[O-] (stereo unspecified) |
| 65 | CCCCC(=O)Oc1cccc(NC(=O)CC(C)=O)c1 |
| 151 | CC1(C)OCC(COc2cc(N)c([N+](=O)[O-])cc2I)O1 (racemic) |
| 99 to 100 | CCC(O)(CC(N)=O)c1ccc(Cl)c(Cl)c1 (stereo unspecified) |
| 61 to 62 | C=CC(=O)Cc1ccc(-c2ccc(CC(=O)C=C)cc2)cc1 |
| 184 to 185 | CCCCCC(C)N(C=C1C(=O)OC(C)(CNc2cc(C(C)(C)C)c(O)c(C(C)(C)C)c2)OC1=O)Cc1ccc(CC(C)(C)C)s1 (stereo unspecified) |
| > 320 | CC(=O)c1cc(C(N)=O)c(=O)[nH]c1C |
| 177 to 180 | COc1c(Cl)ccc(-c2cc(N)c(Cl)c(C(=O)NOCc3ccc(Cl)cc3)n2)c1F |
| 187 | CCN(c1ccc(N2CCN(c3ccc(OC)cc3)CC2)cc1)c1nnc(C)s1 |
| 100 to 101 | NC(=O)C(F)(F)C1(c2ccc(Cl)cc2Cl)CO1 (stereo unspecified) |
| 147 to 148 | C=CCN1C(=O)C2CCc3c(ccc(OC)c3OC)C2C1=O (stereo unspecified) |
